Data taken from patent US20240336638A1, “IMIDAZOLE COMPOUND, AND INTERMEDIATE AND APPLICATION THEREOF” (priority 2021, published 2024).

What was measured:
[1] = system: AA-induced platelet aggregation; assay: Inhibitory effect on AA-induced platelet aggregation in rats in vitro (washed platelets); assay type: cell-based, rat; details: 1*10^−4 M
Protocol: Several experimental groups were established, including a blank control group, an AA (arachidonic acid) model control group, and various test compounds. Each test compound had three concentration groups: 10^−3 M, 10^−4 M, and 10^−5 M. The data from the blank and model control group were shared among the different drug concentration groups as a control.
Male SD rats were anesthetized with 3% chloral hydrate (300 mg/kg) through intraperitoneal injection. After being fixed in a supine position, the skin of the neck was cut about 3 cm, bluntly separated with a hemostat, and the trachea was exposed after the common carotid artery was separated. The distal end of the common carotid artery was ligated with a fine thread, and the proximal end was clamped with an arterial clamp for vascular intubation. After the intubation was fixed, the artery clamp was opened, and the blood was placed into a blood collection tube containing 3.8% trisodium citrate so that the blood was mixed well with the 3.8% trisodium citrate in a volume ratio of 9:1.
The prepared anticoagulant blood was mixed well and centrifuged for 10 minutes at 500 rpm, then the upper layer of plasma was aspirated to obtain platelet-rich plasma (PRP), and the PRP was centrifuged again for 5 minutes at 3,000 rpm. The supernatant was discarded, and the platelet precipitate was obtained, which was washed once with Ca^2+-free HEPES-Tyrode's buffer, then centrifuged at 3,000 rpm for 5 minutes. The supernatant was discarded, and the platelets were resuspended with Ca^2+-free HEPES-Tyrode's buffer to obtain the washed platelets.
First, 300 μL of Ca^2+-containing HEPES-Tyrode's solution was taken into the test cup, put into the test wells, and calibrated by pressing the “PPP” key. Subsequently, 240 μL of the washed platelets were added to the test cup, then added with 30 μL of different concentrations of drug solution, incubated for 10 minutes at 37° C. in a preheated bath, and then put into the test wells. 3 μL of 100× CaCl2 solution (final concentration of 0.2 g/L) and 30 μL of inducer (final concentration of AA of 800 μM) were added to the test wells, and then the “Start” key was pressed immediately. The maximum aggregation rate was recorded every 60 s. The measurement was repeated three times for each concentration for 10 minutes, and the aggregation curve was plotted.
The platelet aggregation inhibition rate was calculated with the following formula:
Inhibition rate (%)=(maximum aggregation rate in the model control group−maximum aggregation rate in the administration group)/maximum aggregation rate in the model control group×100%
All data were expressed as mean±standard deviation (mean±SD). SPSS 22.0 software was used for statistical analysis of the data. Intergroup data were analyzed using one-way ANOVA, with P<0.05 considered as statistically significant and P<0.01 considered as highly significant.

MCAO/R rats = assay: Therapeutic administration (i.v.) in middle cerebral artery occlusion/reperfusion (MCAO/R) rats; assay type: in vivo, rat; details: for Bleeding time / Brain water content (%) / Cerebral infarction rate (%) / Clotting time / Neurological function score: once a day for 3 days, mean ± SD, n = 8; for Neurological function score: modified Bederson score; for reducing the infarct area (smallest mean infarct rate): high doses
Protocol: Male SD rats weighing 250 to 300 g were taken, and the rats in each group fasted for 12 hours before modeling, while water was not restricted. According to the method of Longa et al.^[1], a rat model of MCAO/R was established by occluding the blood flow of internal carotid artery using the thread embolization method. The rats were anesthetized with 3% chloral hydrate (300 mg/kg, 1 mL/100 g body weight) through intraperitoneal injection and fixed in the supine position on the operating table. A midline incision was made in the neck, and the right common carotid artery was isolated using forceps and threaded for later use. The external and internal carotid arteries were isolated from the bifurcation of the common carotid artery. A single thread was threaded through the internal carotid artery, and two threads were threaded through the external carotid artery. Both distal and proximal ends were ligated, and the middle part of the ligation site was cut using ophthalmic scissors. The proximal main trunk of the external carotid artery was isolated and reserved for later use. The prepared cotton thread was used to half-ligate the common carotid artery (tying a slipknot), and the thread prepared for the internal carotid artery was tightened with hemostatic forceps, temporarily occluding the blood flow of the internal carotid artery. A small incision at the proximal main trunk of the external carotid artery was made using ophthalmic scissors, and then, the fishing line was held with straight forceps, inserted from this incision, and slowly advanced through the isolated proximal main trunk of the external carotid artery towards the intracranial direction of the internal carotid artery. The advancement was stopped at a predetermined position, and then the thread of the internal carotid artery that was tightened with the hemostatic forceps was loosened. […] Another thread was threaded and tightened around the proximal main trunk of the external carotid artery and the fishing line that had already been inserted into the predetermined position. The half-ligated thread on the common carotid artery was then loosened, and the skin was subsequently sutured. After 2 hours of ischemia, a small section of the fishing line was pulled out. […] After rats in the blank control group were anesthetized, only the bifurcation of the internal and external carotid arteries was exposed without the occlusion of the MCA.
Successfully modeled rats (neurological function score of 3 after reperfusion) were taken and divided into 20 groups (8 rats for each) according to the random number table method. The groups were divided into a model control group, three dose groups (high, 12 mg/kg, 2.4 mg/mL; medium, 6 mg/kg, 1.2 mg/mL; low, 3 mg/kg, 0.6 mg/mL) for each of the six test compounds, and a positive drug Ozagrel group (6 mg/kg, 1.2 mg/mL), respectively. Both blank and model control groups were administered equal volumes of mixed solvents, and the rats in each group were administered by tail vein injection (i.v.) 2 hours after reperfusion, once a day for 3 consecutive days, with a volume of 0.5 mL/100 g body weight.
Ten minutes after the last administration, the neurological function of the animals was graded according to the modified Bederson scoring method. The standard is as follows[2]: • 0 point: no neurological symptoms; • 1 point: when the rat is suspended by lifting its tail, the forelimb on the surgical side of the rat was flexed and pressed against the chest wall; • 2 points: on a smooth plane, when the rat is pushed from the surgical side to the opposite side, the resistance is less than when it is moved to the same side; • 3 points: the animal moves around or in circles when moving freely; • 4 points: flaccid paralysis, no spontaneous movement of limbs.
After Bederson scoring, the rats were executed by cervical dislocation, and the whole brain was removed and weighed. After weighing, the whole brain was placed in a −20° C. refrigerator for 20 minutes. […]

[2] = medium dose 6 mg/kg i.v. (Ozagrel group 6 mg/kg)

| SMILES | significant inhibition of AA-induced platelet aggregation [1] | Bleeding time (MCAO/R rats; high dose 12 mg/kg i.v.) | Brain water content (%) (MCAO/R rats; high dose 12 mg/kg i.v.) | Cerebral infarction rate (%) (MCAO/R rats; high dose 12 mg/kg i.v.) | Clotting time (MCAO/R rats; high dose 12 mg/kg i.v.) | Neurological function score (MCAO/R rats; high dose 12 mg/kg i.v.) | reducing the infarct area (smallest mean infarct rate) (MCAO/R rats; comparison among test drugs) | Bleeding time (MCAO/R rats; low dose 3 mg/kg i.v.) | Brain water content (%) (MCAO/R rats; low dose 3 mg/kg i.v.) | Cerebral infarction rate (%) (MCAO/R rats; low dose 3 mg/kg i.v.) | Clotting time (MCAO/R rats; low dose 3 mg/kg i.v.) | Neurological function score (MCAO/R rats; low dose 3 mg/kg i.v.) | Bleeding time (MCAO/R rats; [2]) | Brain water content (%) (MCAO/R rats; [2]) | Cerebral infarction rate (%) (MCAO/R rats; [2]) | Clotting time (MCAO/R rats; [2]) | Neurological function score (MCAO/R rats; [2]) | cerebral edema in rats (MCAO/R rats; low and medium doses) | also measured |
| --- | --- | --- | --- | --- | --- | --- | --- | --- | --- | --- | --- | --- | --- | --- | --- | --- | --- | --- | --- |
| O=C(O)[C@@H]1C[C@H]1c1ccc(Cn2cnc(Cl)c2)c(Cl)c1 [Compound 11, (1R,2R)-2-(3-Chloro-4-((4-chloro-1H-imidazol-1-yl)methyl)phenyl)cyclopropane-1-carboxylic acid] | can significantly inhibit | 319.25 ± 49.38 s | 80.58 ± 0.77% | 13.53% | 152.81 ± 29.69 s | 1.25 ± 0.46 | more advantageous | 307.63 ± 64.59 s | 82.04 ± 1.91 % | 28.07 ± 4.88% | 138.38 ± 27.34 s | 2.25 ± 0.46 | 279.75 ± 37.97 s | 80.33 ± 1.65% | 19.96% | 136.63 ± 9.80 s | 2.00 ± 0.53 | – | neurological deficits in rats (MCAO/R rats; high dose): can significantly reduce; improving the neurological function scores of the rats (MCAO/R rats; high dose, comparison among test drugs): more advantageous; cerebral edema in rats (MCAO/R rats; low dose): did not significantly improve |
| O=C(O)[C@@H]1C[C@H]1c1ccc(Cn2ccnc2)c(F)c1 [Compound 15, (1R,2R)-2-(4-((1H-Imidazol-1-yl)methyl)-3-fluorophenyl)cyclopropane-1-carboxylic acid] | can significantly inhibit | 289.63 ± 60.00 s | 80.84 ± 1.40% | 15.57% | 163.13 ± 20.06 s | 1.50 ± 0.53 | – | 281.38 ± 61.33 s | 81.71 ± 1.64% | 29.98 ± 5.52% | 155.38 ± 41.85 s | 2.38 ± 0.74 | 304.88 ± 43.01 s | 81.19 ± 1.32% | 21.57% | 156.50 ± 31.15 s | 1.75 ± 0.71 | – | – |
| O=C(O)[C@@H]1C[C@H]1c1ccc(Cn2cnc(F)c2)cc1F [Compound 17, (1R,2R)-2-(2-Fluoro-4-((4-fluoro-1H-imidazol-1-yl)methyl)phenyl)cyclopropane-1-carboxylic acid] | can significantly inhibit | 338.38 s | 80.34 ± 1.65% | 17.37% | 163.00 ± 29.03 s | 1.63 ± 0.74 | – | 290.75 ± 79.23 s | 82.47 ± 3.03 % | 30.61 ± 5.72% | 141.25 ± 28.04 s | 2.25 ± 0.71 | 307.50 ± 64.66 s | 81.96 ± 2.16 % | 22.75% | 155.00 ± 29.81 s | 1.88 ± 0.83 | did not significantly improve | – |
| O=C(O)[C@@H]1C[C@H]1c1ccc(Cn2cnc(F)c2)c(Cl)c1 [Compound 18, (1R,2R)-2-(3-Chloro-4-((4-fluoro-1H-imidazol-1-yl)methyl)phenyl)cyclopropane-1-carboxylic acid] | can significantly inhibit | 330.25 ± 50.14 s | 80.54 ± 1.62% | 17.78% | 147.25 ± 13.30 s | 1.63 ± 0.52 | – | 267.38 ± 50.19 s | 80.64 ± 2.21% | 26.58 ± 4.57% | 152.38 ± 28.67 s | 2.25 ± 0.46 | 271.63 ± 40.55 s | 80.95 ± 1.79% | 20.75% | 158.19 ± 19.62 s | 1.88 ± 0.83 | – | – |
| O=C(O)[C@@H]1C[C@H]1c1ccc(Cn2ccnc2)cc1 [Compound 19, (1R,2R)-2-(4-((1H-Imidazol-1-yl)methyl)phenyl)cyclopropane-1-carboxylic acid] | can significantly inhibit | 304.75 ± 35.16 s | 80.84 ± 1.04% | 13.48% | 151.19 ± 21.35 s | 1.75 ± 0.89 | more advantageous | 272.38 ± 52.89 s | 82.40 ± 1.50 % | 28.23 ± 2.76% | 136.25 ± 36.28 s | 2.00 ± 0.53 | 274.13 ± 47.46 s | 81.92 ± 1.66 % | 22.38% | 148.63 ± 28.41 s | 2.00 ± 0.76 | did not significantly improve | – |
| O=C(O)/C=C/c1ccc(Cn2ccnc2)cc1 [Ozagrel, reference compound] | – | – | – | – | – | – | – | – | – | – | – | – | 300.00 ± 26.93 s | 79.73 ± 2.02% | 21.70% | 154.50 ± 16.91 s | 1.50 ± 0.93 | – | – |
